According to ChEMBL document CHEMBL1933032, “Synthesis and evaluation of 4-alkoxy-[1'-cyclobutyl-spiro(3,4-dihydrobenzopyran-2,4'-piperidine)] analogues as histamine-3 receptor antagonists” (Bioorg Med Chem Lett, 2012):
One block for each molecule: values may come before it.

Experiments:
[1] = target: Histamine H3 receptor (Homo sapiens, UniProt Q9Y5N1); experiment: Binding affinity to human histamine H3 receptor
[2] = target: Histamine H3 receptor (Rattus norvegicus, UniProt Q9QYN8); experiment: Binding affinity to rat histamine H3 receptor
Histamine H3 receptor (Rattus norvegicus, UniProt Q9QYN8), sequence (Q9QYN8 whole entry): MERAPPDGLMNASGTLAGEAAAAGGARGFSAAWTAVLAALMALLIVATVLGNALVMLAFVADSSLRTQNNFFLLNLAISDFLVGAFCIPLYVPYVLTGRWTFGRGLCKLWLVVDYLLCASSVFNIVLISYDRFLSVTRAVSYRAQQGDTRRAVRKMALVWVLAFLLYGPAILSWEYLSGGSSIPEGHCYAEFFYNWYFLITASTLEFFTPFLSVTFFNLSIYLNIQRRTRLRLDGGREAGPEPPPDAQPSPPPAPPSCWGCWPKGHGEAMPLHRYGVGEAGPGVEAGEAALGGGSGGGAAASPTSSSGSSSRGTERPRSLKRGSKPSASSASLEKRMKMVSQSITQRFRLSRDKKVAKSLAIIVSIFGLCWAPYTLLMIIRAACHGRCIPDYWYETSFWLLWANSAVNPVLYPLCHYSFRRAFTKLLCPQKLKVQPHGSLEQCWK

[3] = target: Histamine H1 receptor (Homo sapiens, UniProt P35367); experiment: Binding affinity to human histamine H1 receptor
Histamine H1 receptor, sequence (P35367 whole entry): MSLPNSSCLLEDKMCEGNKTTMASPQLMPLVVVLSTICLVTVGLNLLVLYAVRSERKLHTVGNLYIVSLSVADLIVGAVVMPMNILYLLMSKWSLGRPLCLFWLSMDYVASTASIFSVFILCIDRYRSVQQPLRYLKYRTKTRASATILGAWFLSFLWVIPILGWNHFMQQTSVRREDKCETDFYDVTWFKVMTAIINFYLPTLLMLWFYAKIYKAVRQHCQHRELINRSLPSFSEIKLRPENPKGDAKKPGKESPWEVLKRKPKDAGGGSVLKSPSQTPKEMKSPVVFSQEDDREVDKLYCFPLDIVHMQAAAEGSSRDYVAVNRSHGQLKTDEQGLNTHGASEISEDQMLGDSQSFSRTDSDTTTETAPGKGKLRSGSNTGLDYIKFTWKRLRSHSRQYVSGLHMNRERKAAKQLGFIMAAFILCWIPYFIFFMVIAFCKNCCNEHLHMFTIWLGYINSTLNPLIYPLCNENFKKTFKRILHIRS

[4] = target: Histamine H2 receptor (Homo sapiens, UniProt P25021); experiment: Binding affinity to human histamine H2 receptor
Histamine H2 receptor, sequence (P25021 whole entry): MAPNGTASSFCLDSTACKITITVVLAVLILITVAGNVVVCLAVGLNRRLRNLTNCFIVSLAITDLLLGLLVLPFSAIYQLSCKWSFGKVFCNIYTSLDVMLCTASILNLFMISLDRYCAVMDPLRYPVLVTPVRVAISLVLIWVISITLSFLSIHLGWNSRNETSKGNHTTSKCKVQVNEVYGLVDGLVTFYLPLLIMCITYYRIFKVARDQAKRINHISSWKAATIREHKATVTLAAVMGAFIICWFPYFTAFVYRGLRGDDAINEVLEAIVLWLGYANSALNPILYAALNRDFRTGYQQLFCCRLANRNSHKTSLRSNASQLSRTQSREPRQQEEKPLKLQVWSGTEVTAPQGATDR

[5] = target: Histamine H4 receptor (Homo sapiens, UniProt Q9H3N8); experiment: Binding affinity to human histamine H4 receptor
[6] = Half life in human liver microsomes; type: ADME, Microsome
[7] = Half life in mouse liver microsomes; type: ADME, Microsome
[8] = Half life in rat liver microsomes; type: ADME, Microsome
[9] = Half life in monkey liver microsomes; type: ADME, Macaca mulatta, Microsome; conditions: rhesus monkey
[10] = target: T1, Cytochrome P450 1A2 (Homo sapiens, UniProt P05177); experiment: Inhibition of CYP1A2; type: ADME
T1 sequence (P05177 whole entry): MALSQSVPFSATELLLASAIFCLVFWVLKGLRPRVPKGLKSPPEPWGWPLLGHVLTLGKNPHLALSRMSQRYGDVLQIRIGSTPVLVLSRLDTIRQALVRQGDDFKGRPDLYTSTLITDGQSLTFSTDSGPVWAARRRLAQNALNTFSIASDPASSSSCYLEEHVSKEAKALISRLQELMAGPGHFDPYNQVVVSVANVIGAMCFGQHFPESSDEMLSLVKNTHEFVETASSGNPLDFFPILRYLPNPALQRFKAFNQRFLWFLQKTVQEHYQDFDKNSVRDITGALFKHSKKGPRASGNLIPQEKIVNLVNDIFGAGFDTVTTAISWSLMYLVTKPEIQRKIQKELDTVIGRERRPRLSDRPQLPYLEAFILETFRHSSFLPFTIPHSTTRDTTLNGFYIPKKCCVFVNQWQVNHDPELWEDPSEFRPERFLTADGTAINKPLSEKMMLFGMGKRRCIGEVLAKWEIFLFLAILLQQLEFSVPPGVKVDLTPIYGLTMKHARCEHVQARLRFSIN

[11] = target: Cytochrome P450 2C9 (Homo sapiens, UniProt P11712); experiment: Inhibition of CYP2C9; type: ADME
Cytochrome P450 2C9, sequence (P11712 whole entry): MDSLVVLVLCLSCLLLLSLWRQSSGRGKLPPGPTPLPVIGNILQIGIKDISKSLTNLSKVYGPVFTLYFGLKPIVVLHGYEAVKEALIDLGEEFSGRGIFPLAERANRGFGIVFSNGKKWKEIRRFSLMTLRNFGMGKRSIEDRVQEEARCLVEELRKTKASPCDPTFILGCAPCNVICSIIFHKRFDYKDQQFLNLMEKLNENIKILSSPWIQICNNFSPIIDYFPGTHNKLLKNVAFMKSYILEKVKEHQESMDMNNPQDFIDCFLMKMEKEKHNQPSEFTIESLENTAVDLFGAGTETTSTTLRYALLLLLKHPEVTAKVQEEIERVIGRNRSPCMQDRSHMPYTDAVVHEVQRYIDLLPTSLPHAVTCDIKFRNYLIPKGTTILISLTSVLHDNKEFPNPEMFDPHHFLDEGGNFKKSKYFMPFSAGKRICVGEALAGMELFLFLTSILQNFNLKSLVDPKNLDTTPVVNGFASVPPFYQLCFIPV

[12] = target: Cytochrome P450 2C19 (Homo sapiens, UniProt P33261); experiment: Inhibition of CYP2C19; type: ADME
Cytochrome P450 2C19, sequence (P33261 whole entry): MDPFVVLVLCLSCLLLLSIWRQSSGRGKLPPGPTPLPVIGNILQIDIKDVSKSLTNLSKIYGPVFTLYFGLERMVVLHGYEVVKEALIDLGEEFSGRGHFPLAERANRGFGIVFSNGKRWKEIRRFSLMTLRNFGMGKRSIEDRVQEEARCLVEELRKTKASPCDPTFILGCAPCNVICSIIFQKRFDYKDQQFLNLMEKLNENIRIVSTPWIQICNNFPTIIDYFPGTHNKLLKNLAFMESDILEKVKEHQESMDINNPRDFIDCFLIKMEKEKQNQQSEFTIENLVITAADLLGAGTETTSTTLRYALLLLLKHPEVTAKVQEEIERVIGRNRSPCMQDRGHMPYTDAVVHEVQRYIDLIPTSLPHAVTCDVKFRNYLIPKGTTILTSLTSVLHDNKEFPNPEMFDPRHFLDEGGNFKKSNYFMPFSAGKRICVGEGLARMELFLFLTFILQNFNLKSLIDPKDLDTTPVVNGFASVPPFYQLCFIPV

[13] = target: Cytochrome P450 2D6 (Homo sapiens, UniProt P10635); experiment: Inhibition of CYP2D6; type: ADME
Cytochrome P450 2D6, sequence (P10635 whole entry): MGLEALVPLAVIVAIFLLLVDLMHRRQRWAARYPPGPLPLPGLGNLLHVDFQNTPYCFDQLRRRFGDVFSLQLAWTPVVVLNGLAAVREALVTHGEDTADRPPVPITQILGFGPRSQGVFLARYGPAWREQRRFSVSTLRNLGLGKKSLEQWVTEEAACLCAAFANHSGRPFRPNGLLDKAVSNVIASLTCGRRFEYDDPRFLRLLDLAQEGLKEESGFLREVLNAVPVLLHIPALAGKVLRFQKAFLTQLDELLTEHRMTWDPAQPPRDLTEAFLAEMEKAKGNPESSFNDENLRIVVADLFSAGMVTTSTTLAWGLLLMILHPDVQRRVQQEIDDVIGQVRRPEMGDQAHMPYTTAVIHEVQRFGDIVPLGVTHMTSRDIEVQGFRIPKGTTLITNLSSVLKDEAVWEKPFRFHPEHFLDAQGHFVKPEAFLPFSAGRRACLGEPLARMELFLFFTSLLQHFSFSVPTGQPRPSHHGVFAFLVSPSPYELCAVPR

[14] = target: Cytochrome P450 3A4 (Homo sapiens, UniProt P08684); experiment: Inhibition of CYP3A4; type: ADME
Cytochrome P450 3A4, sequence (P08684 whole entry): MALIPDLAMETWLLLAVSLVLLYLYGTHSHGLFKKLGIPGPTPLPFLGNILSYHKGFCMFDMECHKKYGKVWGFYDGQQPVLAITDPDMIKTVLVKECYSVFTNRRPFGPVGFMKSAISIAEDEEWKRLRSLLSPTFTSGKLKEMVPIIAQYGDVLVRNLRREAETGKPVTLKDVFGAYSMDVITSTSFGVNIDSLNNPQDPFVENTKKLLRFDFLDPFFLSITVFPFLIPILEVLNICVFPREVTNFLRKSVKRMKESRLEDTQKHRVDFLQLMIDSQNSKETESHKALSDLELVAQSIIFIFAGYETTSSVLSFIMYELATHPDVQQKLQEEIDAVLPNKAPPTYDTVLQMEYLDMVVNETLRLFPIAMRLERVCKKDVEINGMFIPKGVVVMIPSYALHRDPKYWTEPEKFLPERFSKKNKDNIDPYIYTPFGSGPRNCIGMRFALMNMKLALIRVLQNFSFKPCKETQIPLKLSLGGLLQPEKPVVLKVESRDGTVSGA

[15] = Half life in rat at 1 mg/kg, iv; type: ADME, organism-based; parameters: dose 1 mg/kg, route intravenous; conditions: in vivo
[16] = Volume of distribution in rat at 1 mg/kg, iv; type: ADME, organism-based; parameters: dose 1 mg/kg, route intravenous; conditions: in vivo
[17] = Clearance in rat at 1 mg/kg, iv; type: ADME, organism-based; parameters: dose 1 mg/kg, route intravenous; conditions: in vivo
[18] = AUC (0 to t) in rat at 5 mg/kg, po; type: ADME, organism-based; parameters: dose 5 mg/kg, route oral; conditions: plasma
[19] = Cmax in rat at 5 mg/kg, po; type: ADME, organism-based; parameters: dose 5 mg/kg, route oral; conditions: in vivo
[20] = Oral bioavailability in rat at 5 mg/kg; type: ADME, organism-based; conditions: in vivo
[21] = Ratio drug uptake in brain to plasma of rat at 5 mg/kg, po measured after 6 hrs; type: ADME, organism-based; parameters: dose 5 mg/kg, route oral; conditions: read-out: BPR
[22] = Inhibition of nACh receptor at 10 uM
[23] = target: T2, Alpha-2C adrenergic receptor (Homo sapiens) (UniProt P18825); experiment: Inhibition of adrenergic Alpha-2C receptor at 10 uM
T2 sequence (whole entry): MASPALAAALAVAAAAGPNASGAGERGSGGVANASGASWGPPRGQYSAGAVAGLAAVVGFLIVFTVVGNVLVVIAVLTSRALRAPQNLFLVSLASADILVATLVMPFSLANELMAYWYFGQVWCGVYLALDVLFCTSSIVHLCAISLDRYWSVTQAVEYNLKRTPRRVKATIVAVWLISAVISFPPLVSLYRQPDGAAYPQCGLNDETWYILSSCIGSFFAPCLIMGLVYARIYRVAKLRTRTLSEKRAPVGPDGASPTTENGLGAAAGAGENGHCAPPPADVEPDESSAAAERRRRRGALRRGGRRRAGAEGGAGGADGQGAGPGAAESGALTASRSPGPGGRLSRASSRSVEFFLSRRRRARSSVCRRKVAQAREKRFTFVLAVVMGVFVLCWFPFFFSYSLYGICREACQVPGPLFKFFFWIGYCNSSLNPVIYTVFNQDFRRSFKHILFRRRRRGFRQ

[24] = target: T3, Alpha-1D adrenergic receptor (Homo sapiens) (UniProt P25100); experiment: Inhibition of adrenergic Alpha-1D receptor at 10 uM
T3 sequence (whole entry): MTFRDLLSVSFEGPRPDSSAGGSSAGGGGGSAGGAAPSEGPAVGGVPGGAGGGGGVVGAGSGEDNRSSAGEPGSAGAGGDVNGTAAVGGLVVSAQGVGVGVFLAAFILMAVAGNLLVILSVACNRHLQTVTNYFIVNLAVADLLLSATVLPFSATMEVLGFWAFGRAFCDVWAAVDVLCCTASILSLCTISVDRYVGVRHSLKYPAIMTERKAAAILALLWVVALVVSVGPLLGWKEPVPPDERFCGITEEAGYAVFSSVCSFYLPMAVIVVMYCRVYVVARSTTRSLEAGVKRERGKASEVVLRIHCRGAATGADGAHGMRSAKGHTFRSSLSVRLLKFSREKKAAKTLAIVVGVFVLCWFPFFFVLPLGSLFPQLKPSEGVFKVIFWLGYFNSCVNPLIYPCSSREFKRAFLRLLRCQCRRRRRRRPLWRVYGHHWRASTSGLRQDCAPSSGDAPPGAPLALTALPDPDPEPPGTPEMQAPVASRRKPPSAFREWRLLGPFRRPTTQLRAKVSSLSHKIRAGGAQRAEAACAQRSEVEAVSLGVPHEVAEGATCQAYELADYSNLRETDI

[25] = Plasma protein binding in human; type: ADME, cell-free; conditions: read-out: PPB (converted)
[26] = Plasma protein binding in rat; type: ADME, cell-free; conditions: read-out: PPB (converted)
[27] = Fraction unbound in rat brain homogenate; type: ADME, tissue-based
[28] = tested on: Rattus norvegicus; experiment: Inhibition of RAMH-induced dipsogenia in rat at 3 mg/kg, po; type: functional

Histamine H3 receptor (Homo sapiens, UniProt Q9Y5N1), sequence (Q9Y5N1 whole entry): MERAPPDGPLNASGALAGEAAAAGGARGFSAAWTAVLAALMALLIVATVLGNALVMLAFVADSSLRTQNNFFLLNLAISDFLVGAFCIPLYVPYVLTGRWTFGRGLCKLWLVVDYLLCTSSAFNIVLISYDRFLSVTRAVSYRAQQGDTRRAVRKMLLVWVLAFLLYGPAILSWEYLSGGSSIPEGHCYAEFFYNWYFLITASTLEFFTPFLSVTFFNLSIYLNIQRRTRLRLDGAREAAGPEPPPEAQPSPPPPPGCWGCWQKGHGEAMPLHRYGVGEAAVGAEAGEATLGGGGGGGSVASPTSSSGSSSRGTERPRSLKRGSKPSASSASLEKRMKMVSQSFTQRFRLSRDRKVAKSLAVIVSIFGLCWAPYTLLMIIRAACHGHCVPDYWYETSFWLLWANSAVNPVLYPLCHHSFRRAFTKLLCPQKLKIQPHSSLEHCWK

SMILES: CS(=O)(=O)CCOc1ccc2c(c1)CCC1(CCN(C3CCC3)CC1)O2
Ki [1]: 39 nM
Ki [2]: 157 nM

SMILES: c1cc2c(cc1OC1CCSCC1)CCC1(CCN(C3CCC3)CC1)O2
Ki [1]: 23 nM
Ki [2]: 62 nM

SMILES: c1cc2c(cc1OCC1CCSCC1)CCC1(CCN(C3CCC3)CC1)O2
Ki [1]: 12 nM
Ki [2]: 48 nM

SMILES: O=S1(=O)CCC(Oc2ccc3c(c2)CCC2(CCN(C4CCC4)CC2)O3)C1 (stereo not drawn)
Ki [1]: 23 nM
Ki [2]: 44 nM

SMILES: c1cc2c(cc1OC1CCSC1)CCC1(CCN(C3CCC3)CC1)O2 (stereo not drawn)
Ki [1]: 17 nM
Ki [2]: 42 nM

SMILES: CC[C@@H](O)COc1ccc2c(c1)CCC1(CCN(C3CCC3)CC1)O2
Ki [1]: 15 nM
Ki [2]: 86 nM

SMILES: CSCCOc1ccc2c(c1)CCC1(CCN(C3CCC3)CC1)O2
Ki [1]: 38 nM
Ki [2]: 86 nM

SMILES: c1cc2c(cc1OC1CCOCC1)CCC1(CCN(C3CCC3)CC1)O2
Ki [1]: 15 nM
Ki [2]: 42 nM

SMILES: CSCCCOc1ccc2c(c1)CCC1(CCN(C3CCC3)CC1)O2
Ki [1]: 15 nM
Ki [2]: 64 nM

Second part, led by results:

Ki [1]: 42 nM
Ki [2]: 91 nM
SMILES: COCCOc1ccc2c(c1)CCC1(CCN(C3CCC3)CC1)O2

Ki [1]: 10 nM
Ki [2]: 41 nM
Ki [3]: > 10000 nM
Ki [4]: > 10000 nM
Ki [5]: > 10000 nM
half-life [6]: > 40 min
half-life [7]: > 40 min
half-life [8]: > 40 min
half-life [9]: > 40 min
IC50 [10]: > 30000 nM
IC50 [11]: > 30000 nM
IC50 [12]: > 30000 nM
IC50 [13]: > 30000 nM
IC50 [14]: > 30000 nM
half-life [15]: 54 min
Vd [16]: 1.2 L/kg
clearance [17]: 16 mL/min/kg
AUC(0-t) [18]: 586 ng·h/mL
Cmax [19]: 142 ng/mL
bioavailability [20]: 13%
Kp at 6 h [21]: 0.73
SMILES: CS(=O)(=O)CCCOc1ccc2c(c1)CCC1(CCN(C3CCC3)CC1)O2

Ki [1]: 16 nM
Ki [2]: 50 nM
SMILES: c1cc2c(cc1OCC1CCCO1)CCC1(CCN(C3CCC3)CC1)O2 (stereo not drawn)

Ki [1]: 7 nM
Ki [2]: 24 nM
Ki [3]: > 10000 nM
Ki [4]: > 10000 nM
Ki [5]: > 10000 nM
half-life [6]: > 40 min
half-life [7]: > 40 min
half-life [8]: > 40 min
half-life [9]: > 40 min
IC50 [13]: 6600 nM
half-life [15]: 102 min
Vd [16]: 2.8 L/kg
clearance [17]: 19 mL/min/kg
AUC(0-t) [18]: 1790 ng·h/mL
Cmax [19]: 460 ng/mL
bioavailability [20]: 48%
Kp at 6 h [21]: 1
inhibition [22]: 63%
inhibition [23]: 78%
inhibition [24]: 50%
fraction unbound [25]: 0.23
fraction unbound [26]: 0.27
fraction unbound [27]: 0.27
SMILES: O=S1(=O)CCC(Oc2ccc3c(c2)CCC2(CCN(C4CCC4)CC2)O3)CC1
inhibition in vivo at 3 mg/kg [28]: 61%

Ki [1]: 4 nM
Ki [2]: 9 nM
Ki [3]: > 10000 nM
Ki [4]: > 10000 nM
Ki [5]: > 10000 nM
half-life [6]: > 40 min
half-life [7]: > 40 min
half-life [8]: > 40 min
half-life [9]: > 40 min
IC50 [13]: 11000 nM
half-life [15]: 114 min
Vd [16]: 3.6 L/kg
clearance [17]: 23 mL/min/kg
AUC(0-t) [18]: 713 ng·h/mL
Cmax [19]: 157 ng/mL
bioavailability [20]: 22%
Kp at 6 h [21]: 0.73
SMILES: O=S1(=O)CCC(COc2ccc3c(c2)CCC2(CCN(C4CCC4)CC2)O3)CC1

Ki [1]: 15 nM
Ki [2]: 39 nM
SMILES: c1cc2c(cc1O[C@H]1CCOC1)CCC1(CCN(C3CCC3)CC1)O2

Ki [1]: 126 nM
Ki [2]: 368 nM
SMILES: OCCOc1ccc2c(c1)CCC1(CCN(C3CCC3)CC1)O2

Ki [1]: 27 nM
Ki [2]: 119 nM
SMILES: c1cc2c(cc1O[C@@H]1CCOC1)CCC1(CCN(C3CCC3)CC1)O2

Ki [1]: 18 nM
Ki [2]: 74 nM
SMILES: CC(C)(O)COc1ccc2c(c1)CCC1(CCN(C3CCC3)CC1)O2

Ki [1]: 18 nM
Ki [2]: 49 nM
SMILES: c1cc2c(cc1OCC1CCOC1)CCC1(CCN(C3CCC3)CC1)O2 (stereo not drawn)

Ki [1]: 26 nM
Ki [2]: 112 nM
SMILES: CC[C@H](O)COc1ccc2c(c1)CCC1(CCN(C3CCC3)CC1)O2

Ki [1]: 25 nM
Ki [2]: 99 nM
SMILES: CC(O)COc1ccc2c(c1)CCC1(CCN(C3CCC3)CC1)O2 (stereo not drawn)
